No end group written: not given here.
Test system: endothelial cells (HUVECs)
Assay: Binding of TAMRA-labelled γPNA to cells (fluorescence intensity)
Format: cell-based, human
Details: 30 minutes incubation, fluorescence intensity normalized to protein
Procedure: FIGS. 11A and 11B. […] The cells were incubated with TAMRA-e-γP-122-I or TAMRA-γP-122-I for 30 minutes, washed three times, lysed, and the fluorescence intensity was measured and normalized to protein. RFI: Rhodamine (5-TAMRA) fluorescence intensity (561/600).
The inventors generated an endothelial cell targeting version of the disclosed γ-PNA inhibitors of miR-122 by fusing the peptide VHPK (SEQ ID NO: 4) to the γ-PNAs of the instant disclosure (“VHPK-γ-PNA fusion”). VHPK binds to vascular cell adhesion molecule 1 (VCAM1) which is highly expressed on the surface of endothelial cells.

Substance: TAMRA-e-γP-122-I: endothelial cell targeting γ-PNA miR-122 inhibitor fused to peptide VHPK (SEQ ID NO: 4), TAMRA-labelled (VHPKQHRQQSKQC; also: fused to γ-PNA miR-122 inhibitor, TAMRA-labelled, place not given here)
- binding to endothelial cells (HUVECs) versus untagged γ-PNA: Increased binding
- binding to endothelial cells versus HEK-293 cells: increased binding to endothelial cells as compared to human embryonic kidney (HEK-293) cells
- binding to endothelial cells (HUVECs) versus untagged γ-PNA (listed as VHPK-γ-PNA fusion): increased binding

From US12516087B2, “Methods and compositions comprising therapeutic gamma peptide nucleic acid-based molecules” (UNIVERSITY OF IOWA RESEARCH FOUNDATION, priority 2022, dated 2026)
